Literature values in publication PMC6048117 (Scientific Reports, 2018).
Where two headings read alike, the source gives them in different places.

What was measured:
[1] = test system: MPTP model
[2] = test system: nigral 6-OHDA partial or full lesion rat model

Substance | Neuroprotection in MPTP model ([1]; 10 nmol/kg) | Neuroprotection in MPTP model ([1]; 25 nmol/kg) | Efficacy in nigral 6-OHDA partial or full lesion rat model [2]
lixisenatide | did demonstrate neuroprotection | – | –
liraglutide (HAEGTFTSDVSSYLEGQAAKEFIAWLVRGRG; chains of the INN, looked up) [GLP-1R agonist] | – | did demonstrate neuroprotection | failed to demonstrate efficacy
